# Measured values from US8778925B2, “Pyridine and pyrimidine based compounds as Wnt signaling pathway inhibitors for the treatment of cancer” (Cancer Research Technology Ltd., priority 2008, dated 2014).
# Tested on: Wnt pathway
# Test: Luciferase reporter cell based assay (ER-DSH HEK293 cells)
# Conditions: Homo sapiens, TCF-dependent transcription induced by estrogen (2 μM), reporter activity at 24 hours, read-out: IC50 in Luciferase reporter assay (ER-DSH HEK293 cells) assay described in Example 92
# Method: Inhibitory activity of the Wnt pathway was assessed using a luciferase reporter cell based assay. A luciferase reporter cell line was developed in HEK293 cells, which contained an estrogen receptor-DSH (ER-DSH) construct and a TCF-luciferase-IRES-GFP construct.
# A high-throughput assay was performed by inducing TCF-dependent transcription in the ER-DSH HEK293 cell line by the addition of estrogen (2 μM) resulting in at least a 14-fold increase in reporter activity measured at 24 hours. […]
row,IC50,SMILES
1,440 nM,"Cc1nn(C)cc1-c1cncc(Cl)c1N1CCC(C(N)=O)CC1 [Example E47, 1-(3-chloro-5-(1,3-dimethyl-1H-pyrazol-4-yl)pyridin-4-yl)piperidine-4-carboxamide]"
2,1150 nM,"NC(=O)C1CCN(c2ccncc2-c2ccccc2)CC1 [Example E68, 1-(3-phenylpyridin-4-yl)piperidine-4-carboxamide]"
3,3430 nM,"O=C1NCCC12CCN(c1c(Cl)cncc1Cl)CC2 [Example E59, 8-(3,5-dichloropyridin-4-yl)-2,8-diazaspiro[4.5]decan-1-one]"
4,90 nM,"N#CC1CCN(c2c(Cl)cncc2-c2ccccc2)CC1 [Example E86, 1-(3-chloro-5-phenylpyridin-4-yl)piperidine-4-carbonitrile]"
5,110 nM,"NC(=O)C1CCN(c2c(Cl)cncc2-c2ccc(F)cc2)CC1 [Example E50, 1-(3-chloro-5-(4-fluorophenyl)pyridin-4-yl)piperidine-4-carboxamide]"
6,12100 nM,"CC(=O)N1CCN(c2c(Cl)cncc2Cl)CC1 [Example E9, 1-(4-(3,5-dichloropyridin-4-yl)piperazin-1-yl)ethanone]"
7,740 nM,"O=C(O)C1CCN(c2c(Cl)cncc2-c2ccccc2)CC1 [Example E87, 1-(3-chloro-5-phenylpyridin-4-yl)piperidine-4-carboxylic acid]"
8,210 nM,"NC(=O)C1CCN(c2c(Br)cncc2Br)CC1 [Example E27, 1-(3,5-dibromopyridin-4-yl)piperidine-4-carboxamide]"
9,12600 nM,"CNC(=O)C1CCN(c2c(Cl)cncc2Cl)CC1 [Example E1, 1-(3,5-dichloropyridin-4-yl)-N-methylpiperidine-4-carboxamide]"
10,760 nM,"NC(=O)C1CCN(c2c(Cl)cncc2Cl)C1 (stereo not shown) [Example E21, 1-(3,5-dichloropyridin-4-yl)pyrrolidine-3-carboxamide]"
11,30000 nM,"CN(C)C(=O)C1CCN(c2c(Cl)cncc2Cl)CC1 [Example E2, 1-(3,5-dichloropyridin-4-yl)-N,N-dimethylpiperidine-4-carboxamide]"
12,22900 nM,"NC(=O)C1CCN(c2ccncc2Cl)CC1 [Example E12, 1-(3-chloropyridin-4-yl)piperidine-4-carboxamide]"
13,5000 nM,"NC(=O)C1CCN(c2ncncc2-c2ccccc2)CC1 [Example E33, 1-(5-phenylpyrimidin-4-yl)piperidine-4-carboxamide]"
14,440 nM,"NC(=O)C1CCN(c2c(Cl)cncc2-c2ccncc2)CC1 [Example E65, 1-(5-chloro-3,4′-bipyridin-4-yl)piperidine-4-carboxamide]"
15,33 nM,"O=C1NCCC12CCN(c1c(Cl)cncc1-c1ccccc1)CC2 [Example E60, 8-(3-chloro-5-phenylpyridin-4-yl)-2,8-diazaspiro[4.5]decan-1-one]"
16,170 nM,"COc1ccc(-c2cncc(Cl)c2N2CCC(C(N)=O)CC2)cc1OC [Example E4, 1-(3-chloro-5-(3,4-dimethoxyphenyl)pyridin-4-yl)piperidine-4-carboxamide]"
17,7000 nM,"NCCNC(=O)C1CCN(c2c(Cl)cncc2Cl)CC1 [Example E13, N-(2-aminoethyl)-1-(3,5-dichloropyridin-4-yl)piperidine-4-carboxamide]"
18,7660 nM,"Clc1cncc(Cl)c1N1CCC(c2ncco2)CC1 [Example E35, 2-(1-(3,5-dichloropyridin-4-yl)piperidin-4-yl)oxazole]"

row,SMILES,IC50
1,"COc1ccc(-c2cncc(Cl)c2N2CCC(C(N)=O)C2)cc1 (stereo not shown) [Example E74, 1-(3-chloro-5-(4-methoxyphenyl)pyridin-4-yl)pyrrolidine-3-carboxamide]",260 nM
2,"NC(=O)C1CCN(c2ncncc2Br)CC1 [Example E29, 1-(5-bromopyrimidin-4-yl)piperidine-4-carboxamide]",16200 nM
3,"COc1ccc(-c2cnccc2N2CCC(C(N)=O)CC2)cc1 [Example E37, 1-(3-(4-methoxyphenyl)pyridin-4-yl)piperidine-4-carboxamide]",1640 nM
4,"COc1ccc(-c2cncc(Cl)c2N2CCC(C(N)=O)CC2)cc1 [Example E43, 1-(3-chloro-5-(4-methoxyphenyl)pyridin-4-yl)piperidine-4-carboxamide]",32 nM
5,"COc1ccc(-c2cncnc2N2CCC(C(N)=O)CC2)cc1 [Example E85, 1-(5-(4-methoxyphenyl)pyrimidin-4-yl)piperidine-4-carboxamide]",1580 nM

# Tested on: not given
# Test: not given
# Conditions: not given
row,melting point,SMILES
1,157 to 159 °C,"O=C(NCCNc1c(Cl)cncc1Cl)C1CCN(c2c(Cl)cncc2Cl)CC1 [Example E5, 1-(3,5-dichloropyridin-4-yl)-N-(2-(3,5-dichloropyridin-4-ylamino)ethyl)piperidine-4-carboxamide]"
2,132 to 134 °C,O=C(c1ccccc1)N1CCN(c2c(Cl)cncc2Cl)CC1
3,174 to 177 °C,"O=C(NCCNCC1CCCCC1)C1CCN(c2c(Cl)cncc2Cl)CC1 [Example E16, N-(2-(cyclohexylmethylamino)ethyl)-1-(3,5-dichloropyridin-4-yl)piperidine-4-carboxamide]"
4,159 to 161 °C,"N#CC1CCN(c2c(Br)cncc2Br)C1 (stereo not shown) [Example E23, 1-(3,5-dibromopyridin-4-yl)pyrrolidine-3-carbonitrile]"
5,144 to 146 °C,"CC(=O)N1CCN(c2c(Cl)cncc2Cl)CC1 [Example E9, 1-(4-(3,5-dichloropyridin-4-yl)piperazin-1-yl)ethanone]"
6,256 to 258 °C,"O=C(C1CCN(c2c(Cl)cncc2Cl)CC1)N1CCNCC1 [Example E20, (1-(3,5-dichloropyridin-4-yl)piperidin-4-yl)(piperazin-1-yl)methanone]"
7,201 to 202 °C,NC(=O)C1CCN(c2ncncc2Cl)CC1
8,147 to 149 °C,"O=C(NCCN(Cc1ccccc1)Cc1ccccc1)C1CCN(c2c(Cl)cncc2Cl)CC1 [Example E17, N-(2-(dibenzylamino)ethyl)-1-(3,5-dichloropyridin-4-yl)piperidine-4-carboxamide]"
9,161 to 163 °C,"NC(=O)C1CCN(c2c(Cl)cncc2Cl)C1 (stereo not shown) [Example E21, 1-(3,5-dichloropyridin-4-yl)pyrrolidine-3-carboxamide]"
10,236 to 238 °C,"O=C(NCCN(CC1CCCCC1)CC1CCCCC1)C1CCN(c2c(Cl)cncc2Cl)CC1 [Example E18, N-(2-(bis(cyclohexylmethyl)amino)ethyl)-1-(3,5-dichloropyridin-4-yl)piperidine-4-carboxamide]"
11,209 to 211 °C,"O=C(NCCNC(=O)C1CCN(c2c(Cl)cncc2Cl)CC1)c1ccccc1 [Example E19, N-(2-benzamidoethyl)-1-(3,5-dichloropyridin-4-yl)piperidine-4-carboxamide]"
12,182 to 184 °C,Cc1cncnc1N1CCC(C(N)=O)CC1
13,220 to 222 °C,"NC(=O)C1CCN(c2c(Br)cncc2-c2ccccc2)CC1 [Example E39, 1-(3-bromo-5-phenylpyridin-4-yl)piperidine-4-carboxamide]"

row,SMILES,melting point
1,"NC(=O)C1CCN(c2ncncc2Br)CC1 [Example E29, 1-(5-bromopyrimidin-4-yl)piperidine-4-carboxamide]",188 to 190 °C
